{
  "source": "patent EP4389751A1",
  "about": "“HETEROCYCLIC COMPOUNDS AND USES THEREOF” (Kumquat Biosciences Inc., priority 2021, dated 2024)",
  "key": {"[1]": {"test_system": "A549 cells", "experiment": "Cell proliferation assay (CellTiter-Glo), K-Ras G12S cells", "format": "cell-based", "conditions": "for IC50: Homo sapiens; for ratio of IC50 against a G12D cell line to IC50 against a G12S cell line: K-Ras G12D cell line such as GP2D relative to K-Ras G12S cell line such as A549, greater than 1, 2, 3, 4, 5, 10, 15 or even greater, 8640 min", "summary_of_the_method": "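A549 cells (K-Ras G12S) in RPMI-1640 with 10% FBS, seeded in standard or ultra-low-attachment plates and dosed next day with a 10-point 3-fold series. Viability read about 6 days later by CellTiter-Glo luminescence. IC50 from four-parameter fit.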"}, "[2]": {"target": "T1, K-Ras G12S (Homo sapiens, UniProt P01116, G12S)", "T1 construct": "made in house; host or cells: E. coli (e.g., BL21 (DE3))", "T1 sequence (P01116 1-188 isoform P01116-2 G12S)": "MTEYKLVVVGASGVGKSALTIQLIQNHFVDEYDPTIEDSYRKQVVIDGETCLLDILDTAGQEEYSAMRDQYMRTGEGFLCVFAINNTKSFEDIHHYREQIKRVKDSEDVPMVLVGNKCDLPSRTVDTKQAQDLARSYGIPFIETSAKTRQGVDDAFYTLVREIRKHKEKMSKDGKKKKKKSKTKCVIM", "experiment": "HTRF assay of the K-Ras / SOS1 interaction", "format": "biochemical", "conditions": "IC50 (against K-Ras G12D) to IC50 (against K-Ras G12S)", "summary_of_the_method": "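Compounds (duplicates, 10 µM to 0.01 µM) were incubated ≥~10 min with Eu-labelled GST-K-Ras G12S and XL665-labelled His-hSOS1 in HEPES pH 7.4 buffer containing NaCl, DTT, BSA and Igepal. Disruption measured as HTRF emission ratio 665/620 nm, fitted to IC50.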"}, "[3]": {"test_system": "GP2D cells", "experiment": "Cell proliferation assay (CellTiter-Glo), K-Ras G12D cells", "format": "cell-based", "conditions": "read-out: Inhibition of GP2D Cells (IC50)", "summary_of_the_method": "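CellTiter-Glo luminescence, taken roughly 5 days after dosing, measured growth of G12D-mutant GP2D cells in DMEM/2 mM glutamine/10% FBS. Compound dilution series (e.g., 9 points, 3-fold) added the day after plating. Four-parameter fitting gave IC50.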"}, "[4]": {"conditions": "A549, A549 cells (K-Ras G12S), bin ≤ 500 nM, read-out: Inhibition of A549 Cells (IC50)"}},
  "note": "Like-named read-outs stand apart in the source and are kept apart here.",
  "data": [
    {"smiles": "N#Cc1c(N)sc2c(F)ccc(-c3c(Cl)cc4c(N5CCCC6(CN(C(=O)n7cncn7)C6)C5)nc(OC[C@@]56CCCN5C[C@H](F)C6)nc4c3F)c12", "note": "[Compound A129, 4-(4-(2-(1H-1,2,4-triazole-1-carbonyl)-2,6-diazaspiro[3.5]nonan-6-yl)-6-chloro-8-fluoro-2-(((2R,7aS)-2-fluorotetrahydro-1H-pyrrolizin-7a(5H)-yl)methoxy)quinazolin-7-yl)-2-amino-7-fluorobenzo[b]thiophene-3-carbonitrile]", "values": [
      {"measurement": "IC50", "setting": "[1]; [4]", "result": "≤ 500", "unit": "nM"},
      {"measurement": "Ratio of IC50 KRAS G12D vs. IC50 KRAS G12S", "setting": "[2]", "result": "A (A: indicates that the ratio of IC50 against KrasG12D vs. IC50 against KrasG12S is 1-fold or greater)"},
      {"measurement": "IC50", "setting": "[3]; GP2D cells (K-Ras G12D)", "result": "1000 to 10000", "unit": "nM"}
    ]},
    {"smiles": "Cc1ncn(C(=O)N2CC3(CCCN(c4nc(OC[C@@]56CCCN5C[C@H](F)C6)nc5c(F)c(-c6ccc(F)c7sc(N)c(C#N)c67)c(Cl)cc45)C3)C2)n1", "note": "[Compound A102, 2-amino-4-(6-chloro-8-fluoro-2-(((2R,7aS)-2-fluorotetrahydro-1H-pyrrolizin-7 a(5H)-yl)methoxy)-4-(2-(3-methyl-1H-1,2,4-triazole-1-carbonyl)-2,6-diazaspiro[3.5]nonan-6-yl)quinazolin-7-yl)-7-fluorobenzo[b]thiophene-3-carbonitrile]", "values": [
      {"measurement": "IC50", "setting": "[1]; [4]", "result": "≤ 500", "unit": "nM"},
      {"measurement": "ratio of IC50 against a G12D cell line to IC50 against a G12S cell line", "setting": "[1]", "result": "greater than 1"},
      {"measurement": "Ratio of IC50 KRAS G12D vs. IC50 KRAS G12S", "setting": "[2]", "result": "A (A: indicates that the ratio of IC50 against KrasG12D vs. IC50 against KrasG12S is 1-fold or greater)"},
      {"measurement": "IC50", "setting": "[3]; GP2D cells (K-Ras G12D)", "result": "1000 to 10000", "unit": "nM"}
    ]},
    {"smiles": "N#Cc1cn(C(=O)N2C3CCC2CN(c2nc(OC[C@@]45CCCN4C[C@H](F)C5)nc4c(F)c(-c5ccc(F)c6sc(N)nc56)c(Cl)cc24)C3)cn1", "note": "[Compound A123, 1-(3-(7-(2-amino-7-fluorobenzo[d]thiazol-4-yl)-6-chloro-8-fluoro-2-(((2R,7aS)-2-fluorotetrahydro-1H-pyrrolizin-7a(5H)-yl)methoxy)quinazolin-4-yl)-3,8-diazabicyclo[3.2. 1]octane-8-carbonyl)-1H-imidazole-4-carbonitrile]", "values": [
      {"measurement": "IC50", "setting": "[1]; A549, read-out: Inhibition of A549 Cells (IC50)", "result": "500 to 5000", "unit": "nM"},
      {"measurement": "Ratio of IC50 KRAS G12D vs. IC50 KRAS G12S", "setting": "[2]", "result": "A (A: indicates that the ratio of IC50 against KrasG12D vs. IC50 against KrasG12S is 1-fold or greater)"},
      {"measurement": "IC50", "setting": "[3]; GP2d", "result": "≤ 1000", "unit": "nM"}
    ]},
    {"smiles": "C#Cc1c(F)ccc2cc(O)cc(-c3ncc4c(N5CCOCC6(CN(C(=O)n7cnc(C)n7)C6)C5)nc(OC[C@@]56CCCN5C[C@H](F)C6)nc4c3F)c12", "note": "[Compound A298, (9-(7-(8-ethynyl-7-fluoro-3-hydroxynaphthalen-1-yl)-8-fluoro-2-(((2R,7aS)-2-fluorotetrahydro-1H-pyrrolizin-7a(5H)-yl)methoxy)pyrido[4,3-d]pyrimidin-4-yl)-6-oxa-2,9-diazaspiro[3.6]decan-2-yl)(3-methyl-1H-1,2,4-triazol-1-yl)methanone]", "values": [
      {"measurement": "IC50", "setting": "[1]; A549, A549 cells (K-Ras G12S), bin 500 nM to 5 µM, read-out: Inhibition of A549 Cells (IC50)", "result": "500 to 5000", "unit": "nM"},
      {"measurement": "ratio of IC50 against a G12D cell line to IC50 against a G12S cell line", "setting": "[1]", "result": "greater than 1"},
      {"measurement": "Ratio of IC50 KRAS G12D vs. IC50 KRAS G12S", "setting": "[2]", "result": "A (A: indicates that the ratio of IC50 against KrasG12D vs. IC50 against KrasG12S is 1-fold or greater)"},
      {"measurement": "IC50", "setting": "[3]; GP2D cells (K-Ras G12D)", "result": "1000 to 10000", "unit": "nM"}
    ]},
    {"smiles": "Cc1ncn(C(=O)N2CC3CCN(c4nc(OC[C@@]56CCCN5C[C@H](F)C6)nc5c(F)c(-c6ccc(F)c7sc(N)c(C#N)c67)c(Cl)cc45)C3C2)n1", "note": "(stereo partly drawn) [Compound A304, 2-amino-4-(6-chloro-8-fluoro-2-(((2R,7aS)-2-fluorotetrahydro-1H-pyrrolizin-7a(5H)-yl)methoxy)-4-(5-(3-methyl-1 H-1,2,4-triazole-1-carbonyl)hexahydropyrrolo[3,4-b]pyrrol-1(2H)-yl)quinazolin-7-yl)-7-fluorobenzo[b]thiophene-3-carbonitrile]", "values": [
      {"measurement": "IC50", "setting": "[1]; [4]", "result": "≤ 500", "unit": "nM"},
      {"measurement": "ratio of IC50 against a G12D cell line to IC50 against a G12S cell line", "setting": "[1]", "result": "greater than 1"},
      {"measurement": "Ratio of IC50 KRAS G12D vs. IC50 KRAS G12S", "setting": "[2]", "result": "A (A: indicates that the ratio of IC50 against KrasG12D vs. IC50 against KrasG12S is 1-fold or greater)"},
      {"measurement": "IC50", "setting": "[3]; GP2D cells (K-Ras G12D)", "result": "1000 to 10000", "unit": "nM"}
    ]}
  ]
}
